{
  "source": "patent US8916604B2",
  "about": "“Compositions and methods for epigenetic modification of nucleic acid sequences” (Rutgers, The State University of New Jersey, priority 2011, dated 2014)",
  "key": {"HO-1": {"tested_on": "HO-1", "assay": "qPCR mRNA expression in HepG2-C8 cells", "type": "cell-based, human", "conditions": "25 μM, 6 h, vs 0.1% DMSO", "protocol": "The cells were treated similarly to the NITS and ARE-luciferase assays described above using 10% FBS medium. The incubation of the compounds with the cells was terminated 6 h later. The mRNA expression was evaluated utilizing a quantitative real-time polymerase chain reaction (qPCR). An RNeasy kit from Qiagen was used for RNA extraction (Valencia, Calif.). The total RNA was reverse-transcribed to cDNA by TaqMan Reverse Transcription Reagents (Applied Biosystems Inc, Foster City, Calif.). SYBR Green (Applied Biosystems Inc, Foster City, Calif.) fluorescence was used to measure the product of qPCR. Glyceraldehyde 3-phosphate dehydrogenase (GAPDH) was used as the housekeeping gene, and the Applied Biosystems 7900HT Fast Real-Time PCR System (Applied Biosystems Inc, Foster City, Calif.) was used as described previously (Saw et al., Biochem Pharmacol 2010; 79: 421-430) to detect quantitatively the induction of mRNA of Nrf2, phase II DME GSTm2, NAD (P)H dehydrogenase, quinone 1 (NQO1), UGT family, polypeptide A1 (UGT1A1) and antioxidant enzymes HO-1, superoxide dismutase 1 (SOD1). The primer pairs were designed using the Primer Quest Oligo Design and Analysis Tool by Integrated DNA Technologies Inc. (Coralville, Iowa, USA) and the sequences are listed in Table 4. At least four wells of each treatment were performed and duplicate samples were carried out for each treatment."}, "TRAMP mice": {"tested_on": "TRAMP mice", "assay": "DIM-supplemented diet, prostate tumorigenesis in TRAMP males", "type": "in vivo, mouse", "conditions": "for Incidence of palpable tumor: sacrificed at 24 weeks, control 6/19; for Incidence of lymph nodes metastasis: control 5/19; for histological incidence of HG-PIN: control 54%", "protocol": "Female hemizygous C57BL/TGN TRAMP mice, line PB Tag 8247NG, and male C57BL/6 mice were purchased from The Jackson Laboratory (Bar Harbor, Me., U.S.A.). The animals were bred on the same genetic background C57BL/6 and maintained in the Laboratory Animal Service facility at Rutgers University. Housing and care of the animals was performed in accordance with the guidelines established by the University's Animal Research Committee consistent with the NIH Guidelines for the Care and Use of Laboratory Animals, Transgenic males for the studies were obtained as [TRAMP×C57BL/6] F1 or [TRAMP×C57BL/6] […] Throughout the experiment the animals were housed in a temperature-control led room (68-72° F.) with a 12 h light dark cycle, at a relative humidity of 45% to 55%.\nDIM was obtained from Sigma-Aldrich (St. Louis, Mo., U.S.A.). MN-76A diets containing 1% DIM were prepared by Research Diets Inc. (New Brunswick, N.J., U.S.A.) and stored at −20° C. The dose was chosen based in part on studies reported previously Anderton et al., Drug Metab Dispos. 2004; 32: 632-8; and Xue et al., J Nutr Biochem. 2008; 19: 336-44). In our present study, 1% DIM was well-tolerated with these TRAMP mice. The control TRAMP males (n=19) received A1N-76A diets throughout the experiment while the treated TRAMP males received 1% DIM diet starting from eight weeks of age (n=9) as Group 1 (D-G1) and Group 2 (D-G2) starting from twelve weeks of age (n=8) (FIG. 12A). Fresh diets were added to the cages twice weekly.\nTRAMP males were weighed weekly and the overall health of the animals was monitored on a regular basis. All mice were sacrificed at the age of 24 weeks by carbon dioxide euthanasia and the genitourinary apparatus (GU) consisting of the seminal vesicles, prostate, and bladder were isolated for further analyses (FIG. 12B).\nThe dorso-lateral prostate (n=5) was excised and fixed in 10% formalin for 24 b and then transferred to 70% ethanol for 24 h. After dehydration processing, and embedding with paraffin, tissue sections ([…]) were cut from paraffin embedded prostate tissue and mounted on slides. The sections were stained with Hematoxylin and Eosin (H&E) to examine any neoplastic changes. Sections were evaluated by a histopathologist in a blinded fashion to classify prostatic intra-epithelial neoplasia (PIN) lesion, as we have reported previously (8, 12, 13, 30), Lesions were classified as PIN I, PIN II, PIN III, and PIN IV (Park et al., Am J Pathol. 2002; 161: 727-35). For ease of classification, PIN I and PIN II were combined as low grade PIN (LG-PIN) while PIN III and PIN IV were combined as high grade PIN (HG-PIN) as we have performed previously (8, 12, 30, 31)."}, "HepG2-C8 cells": {"tested_on": "HepG2-C8 cells", "assay": "MTS cell viability assay", "type": "cell-based, human", "conditions": "Homo sapiens", "protocol": "The stably transfected single clone HepG2-ARE-C8 (HepG2-C8) cell line has been established previously in our laboratory using the […]-luciferase reporter gene. The cells were maintained in Dulbecco's modified Eagle medium supplemented with 10% fetal bovine serum (FBS), 1.17 g/l sodium bicarbonate, and 100 unit/ml penicillin, 100 μg/ml streptomycin at 37° C. in a humidified incubator with 5% CO2. […] MTS] (Promega, Madison, Wis.). […] The cells were then treated with MTS for 1 h at 37° C. Absorbance of the formazan product was read at 490 nm with a μQuant Biomolecular Spectrophotometer from Bio-Tek Instruments Inc. (Winooski, Vt.). Independent control studies were conducted using 1% and 10% FBS medium."}, "[1]": {"conditions": "D-G2: 1% DIM diet from 12 weeks of age, p<0.05"}},
  "note": "Where two headings read alike, the source gives them in different places.",
  "data": [
    {"compound": "c1ccc2c(Cc3c[nH]c4ccccc34)c[nH]c2c1", "note": "[DIM, 3,3′-diindolylmethane]", "values": [
      {"measurement": "HO-1 mRNA induction over control", "setting": "HO-1", "result": "~3", "unit": "fold"},
      {"measurement": "Incidence of palpable tumor", "setting": "TRAMP mice; D-G1: 1% DIM diet from 8 weeks of age", "result": "1/9^a,"},
      {"measurement": "Incidence of lymph nodes metastasis", "setting": "TRAMP mice; D-G1: 1% DIM diet from 8 weeks of age, p<0.05", "result": "0/9^b, #"},
      {"measurement": "histological incidence of carcinoma", "setting": "TRAMP mice; D-G1, control 46%", "result": 20, "unit": "%"},
      {"measurement": "histological incidence of HG-PIN", "setting": "TRAMP mice; D-G1", "result": 20, "unit": "%"},
      {"measurement": "wet genitourinary apparatus (GU) weight", "setting": "TRAMP mice; D-G1 and D-G2 vs non-treated control, p<0.05", "result": "statistically significant decrease"},
      {"measurement": "histological incidence of LG-PIN", "setting": "TRAMP mice; D-G2", "result": 20, "unit": "%"},
      {"measurement": "histological incidence of carcinoma", "setting": "TRAMP mice; D-G2", "result": "no carcinoma"},
      {"measurement": "Incidence of palpable tumor", "setting": "TRAMP mice; [1]", "result": "0/8^a, *"},
      {"measurement": "Incidence of lymph nodes metastasis", "setting": "TRAMP mice; [1]", "result": "0/8^b, #"},
      {"measurement": "histological incidence of HG-PIN", "setting": "TRAMP mice; D-G2", "result": 80, "unit": "%"},
      {"measurement": "incidence of lymph node metastasis", "setting": "TRAMP mice; DIM-treated mice overall vs 26.3% in control", "result": 0, "unit": "%"},
      {"measurement": "percentage of palpable tumor", "setting": "TRAMP mice; DIM-treated mice overall vs 31.6% in control", "result": 5.8, "unit": "%"},
      {"measurement": "IC50", "setting": "HepG2-C8 cells; HepG2C8, 1% FBS medium, read-out: cell viability inhibitory concentrations (IC50)", "result": 51, "unit": "µM"},
      {"measurement": "IC50", "setting": "HepG2-C8 cells; HepG2C8, 10% FBS medium (data not shown), read-out: cell viability IC50", "result": "~85", "unit": "µM"}
    ]}
  ]
}
